The test system of the test is ADP-stimulated platelets. Description: ADP-stimulated platelet aggregation assay (gel-filtered human platelets). In kind it is cell-based. Particulars: ADP-stimulated gel-filtered human platelets (2×10^8 per ml), fibrinogen 100 ug/ml, Ca^2+ 1 mM, 10 mM ADP, 37° C., read-out: IC50 (inhibition of aggregation by 50% relative to a control). The text has this: The activity of these fibrinogen receptor antagonists is illustrated below. One test used to evaluate fibrinogen receptor antagonist activity is based on evaluation of inhibition of ADP-stimulated platelets. Aggregation requires that fibrinogen bind to and occupy the platelet fibrinogen receptor site. Inhibitors of fibrinogen binding inhibit aggregation. In the ADP-stimulated platelet aggregation assay used to determine inhibition associated with these fibrinogen receptor antagonists, human platelets are isolated from fresh blood, collected into acid citrate/dextrose by differential centrifugation followed by gel filtration on Sepharose 2B in divalent ion-free Tyrode's buffer (pH 7.4) containing 2% bovine serum albumin.
Platelet aggregation is measured at 37° C. in a Chronolog aggregometer. The reaction mixture contains gel-filtered human platelets (2×10^8 per ml), fibrinogen (100 micrograms per ml (ug/ml)), Ca^2+ (1 mM), and the fibrinogen receptor antagonists tested. The aggregation is initiated by adding 10 mM ADP 1 minute after the other components are added. The reaction is then allowed to proceed for at least 2 minutes. The extent of inhibition of aggregation is expressed as the percentage of the rate of aggregation observed in the absence of inhibitor. The IC50 is the dose of a particular compound inhibiting aggregation by 50% relative to a control lacking the compound. […]

IC50 data for one compound are collected here from patent US5686607A, “Pyridyl ethylation of lactam derivatives” (Merck & Co., Inc., priority 1996, dated 1997).

In general, IC50 refers to the concentration at which inhibition is half-maximal. For `C[C@H](CC(=O)O)NC(=O)CN1CCCC(CCC2CCNCC2)C1=O` (stereo partly shown), the IC50 came out at 100 µM.
